We go through 14 compounds from patent publication US20070066616A1, “Inhibitors for extracellular signal-regulated kinase docking domains and uses therefor” (priority 2005, published 2007).

For assay [1], the system named is ERK-mediated phosphorylation of Rsk-1 on Thr573. In words: ERK-mediated Rsk-1 phosphorylation (Thr573), immunoblot and densitometry in EGF-stimulated HeLa cells. The class given is cell-based, human. As to conditions: immunoblot. The protocol:
Prior to harvesting, cells were pre-incubated with the test compounds for 15-20 minutes and then stimulated with EGF or anisomycin to activate the ERK or p38 MAP kinase pathways, respectively. Control and treated cells were washed twice with cold phosphate buffered saline (PBS, pH 7.2; Invitrogen) and proteins were collected following cell lysis with 300 μl of cold tissue lysis buffer (20 mM Tris, pH 7.4, 137 mM NaCl, 2 mM EDTA, 1% Triton X-100, 0.1% SDS, 25 mM β-glycerophosphate, 2 mM sodium pyrophosphate, 10% glycerol, 1 mM sodium orthovanadate, 1 mM phenylmethylsulfonyl fluoride (PMSF), 1 mM benzamidine), allowed to incubate on ice for about 10 minutes and then centrifuged at 20,000 (X g) to clarify the lysates of insoluble material. The lysates then were diluted with an equal volume of 2X SDS-sample buffer and the proteins were separated on SDS-PAGE for immunoblot analysis. Immunoblot analysis was done as previously described (41-43).
All compounds were subjected to assays of ERK specific phosphorylation of Rsk-1 and/or Elk-1 as examined by immunoblot analysis using phosphorylation specific antibodies. In FIG. 5A HeLa cells were cultured in 24 well plates and pretreated for 20-30 minutes with […] of the selected test compounds. The cells were stimulated with epidermal growth factor (EGF, 50 ng/ml) for 5 minutes to activate the ERK pathway. Cell lysates were collected and immunoblotted for ERK-mediated phosphorylation of Rsk-1 on Thr573. As shown, EGF treatment alone caused a robust increase in Thr573 phosphorylation on Rsk-1 in the absence of test compounds. The presence of test compounds had inhibitory effects on ERK-mediated Rsk-1 phosphorylation.
Compounds 86-98 were first tested for inhibition of ERK mediated phosphorylation of the transcription factor Elk-1, which is an important regulator of cell proliferation. Cells were treated with EGF to activate the ERK pathway and phosphorylation of Elk-1 on the ERK site at S383 was detected by immunoblot analysis (FIG. 5C). […] The effects of the test compounds were also tested with Rsk-1, another ERK substrate involved in regulating cell proliferation.
(In western blotting, separated proteins are transferred to a membrane and probed.)

Assay [2] concerns ERK specific phosphorylation of Rsk-1 and/or Elk-1. In words: ERK substrate phosphorylation assays (Rsk-1 and/or Elk-1). The class given is cell-based, human. The protocol:
(§1) Prior to harvesting, cells were pre-incubated with the test compounds for 15-20 minutes and then stimulated with EGF or anisomycin to activate the ERK or p38 MAP kinase pathways, respectively. […] The lysates then were diluted with an equal volume of 2X SDS-sample buffer and the proteins were separated on SDS-PAGE for immunoblot analysis. Immunoblot analysis was done as previously described (41-43).

The test system of assay [3] is HeLa, A549, or SUM-159 cells. The experiment in a line: Colony formation assay, screen of test compounds (FIG. 7A). It counts as cell-based, human. The arrangement: dose or concentration left out as unconfirmed. To be noted: FIG. 7A screen as printed. The protocol:
HeLa, A549, or SUM-159 cells were plated at a low density of ˜200-400 cells per well in the absence or presence of putative ERK docking domain inhibitors. Cell colonies were stained with crystal violet and counted after 6-10 days. In FIG. 7A cells were grown on 10 cm plates in the absence (−) or presence of 100 mM of compound 67, 36, 68, 81, or 76. Colony formation dose response in the presence of the indicated concentrations of compound 76 or 81 for Hela cells […] (FIG. 7B), A549 cells (50 mM) (FIG. 7C), or SUM-159 cells (50 mM) (FIG. 7D).
(§2) Trypsinized cells were plated on 12 or 24 well plates at low densities (200-400 cells per well) in the absence (DMSO only) or presence of test compounds. In additional experiments, cells were first allowed to adhere to the culture dishes for 16 hours prior to treatment with test compounds. The treated cells received a single dose of the test compounds at the beginning of the experiments. The control and treated cells were grown for 8-14 days to allow the formation of colonies. Cells then were fixed for 10 minutes in 4% paraformaldehyde and stained with 0.2% crystal violet (in 20% methanol) for 1-2 minutes. Following several washes with distilled water, the colonies (containing at least 40 cells) were counted. Each individual experiment was repeated on at least 3 separate occasions.
The effects of the active compounds on cell proliferation and survival were tested using a colony formation assay.

In the next assay the target is T1, ERK2 (Mus musculus, UniProt P63085).
T1 construct: (His)x6; made in house; host or cells: bacteria
T1 sequence (P63085 whole entry): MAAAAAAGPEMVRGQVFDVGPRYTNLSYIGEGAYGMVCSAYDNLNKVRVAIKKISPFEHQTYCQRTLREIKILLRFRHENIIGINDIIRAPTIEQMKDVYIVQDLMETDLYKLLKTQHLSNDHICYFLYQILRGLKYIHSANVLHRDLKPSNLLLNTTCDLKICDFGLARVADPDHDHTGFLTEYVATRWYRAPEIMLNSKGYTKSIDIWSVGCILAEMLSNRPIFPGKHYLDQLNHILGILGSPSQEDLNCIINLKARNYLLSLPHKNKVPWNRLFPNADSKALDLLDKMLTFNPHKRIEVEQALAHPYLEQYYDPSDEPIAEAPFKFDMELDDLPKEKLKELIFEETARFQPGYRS
In words: Fluorescence titration (quenching of intrinsic ERK2 fluorescence). To be noted: fluorescence titration. The class given is binding. The protocol: Experiments measure the changes in the intrinsic ERK2 fluorescence due to the presence of aromatic amino acids, with the indole group of tryptophan being the major fluorophore with absorption and emission maxima around 280 and 340 nanometers (nm), respectively. Fluorescence spectra were recorded with a Luminescence Spectrometer LS50 (Perkin Elmer, Boston, Mass.). For all experiments, ERK2 protein was diluted into 20 mM Tris-HCl, pH 7.5. Titrations were performed by increasing the test compound concentration while maintaining the ERK2 protein concentration at 3 μM.
The excitation wavelength was 295 nm and fluorescence was monitored from 300 to 500 nm. All reported fluorescence intensities are relative values and are not corrected for wavelength variations in detector response. Dissociation constants, KD, were determined using reciprocal plots, 1/ν vs 1/[I], where ν represents the percent occupied sites calculated assuming fluorescence quenching to be directly proportion to the percentage of occupied binding sites, [I] represents the concentration of the inhibitor compound and the slope of the curve equals the KD (48-49).
ERK2 contains three tryptophans, which have intrinsic fluorescence. Fluorescence quenching of ERK2 by the test compounds is indicative of binding interactions and potential protein conformational changes.

In assay [4] the test system is HT1080 fibrosarcoma cells. In words: Cell proliferation, HT1080 cells. The class given is cell-based, human. As to conditions: data not shown. The protocol: as §2
For assay [5], the system named is SUM-159 estrogen-receptor negative breast cancer cell line. The experiment in a line: Cell proliferation, SUM-159 cells. It counts as cell-based, human. The protocol: (§3) HeLa, A549, or SUM-159 cells were plated at a low density of ˜200-400 cells per well in the absence or presence of putative ERK docking domain inhibitors. Cell colonies were stained with crystal violet and counted after 6-10 days. In FIG. 7A cells were grown on 10 cm plates in the absence (−) or presence of 100 mM of compound 67, 36, 68, 81, or 76. Colony formation dose response in the presence of the indicated concentrations of compound 76 or 81 for Hela cells (100 mM) (FIG. 7B), A549 cells (50 mM) (FIG. 7C), or SUM-159 cells (50 mM) (FIG. 7D).
as §2

Assay [6] has as its system A549 lung carcinoma cells. In words: Colony formation assay, A549 cells. To be noted: colony formation dose response (FIG. 7C). It counts as cell-based, human. The protocol: as §3, §2
The test system of another assay is HeLa cells. In words: Colony formation assay, HeLa cells. The class given is cell-based, human. As to conditions: for IC50: HeLa cells, single dose 0-100 μM, 8-10 days, at least 3 experiments. The protocol: HeLa, A549, or SUM-159 cells were plated at a low density of ˜200-400 cells per well in the absence or presence of putative ERK docking domain inhibitors. Cell colonies were stained with crystal violet and counted after 6-10 days.
as §2
HeLa cells were plated at low density and incubated with a single dose (0-100 μM) of the test compounds being tested. After 8-10 days, the resulting cell colonies were stained, photographed, and counted to estimate the IC50. The data is derived from at least 3 independent experiments.

Assay [7] has as its system ERK-mediated phosphorylation of Elk-1 on S383. In words: ERK-mediated Elk-1 phosphorylation (Ser383), immunoblot in EGF-stimulated HeLa cells. The class given is cell-based, human. The protocol: as §1
Cells were treated with EGF to activate the ERK pathway and phosphorylation of Elk-1 on the ERK site at S383 was detected by immunoblot analysis (FIG. 5C). […] The effects of the test compounds were also tested with Rsk-1, another ERK substrate involved in regulating cell proliferation.

Entries after “also recorded” stand apart in the source; their conditions may differ.

`N=C(N)Nc1nc(C2COc3ccccc3O2)cs1` (stereo not drawn) [Compound 36]: the “effect on ERK-mediated Rsk-1 phosphorylation (in words)” value in assay [1] is “little effect”. For the same compound, in assay [2], the “activity in ERK substrate phosphorylation assays (in words)” value is recorded as “little effect”. The “effect on colony formation / cell proliferation (in words)” value in assay [3] is recorded as “subtle inhibition; also recorded: little effect”.

With `COc1ccc(CN2CCNCC2)cc1` [Compound 67], in assay [1], the “effect on ERK-mediated Rsk-1 phosphorylation (in words)” value is “significantly reduced”. The “ERK2 fluorescence quenching / binding (in words)” value on ERK2 is listed as “did not show quenching”. Besides, in [3], the “effect on colony formation / cell proliferation (in words)” value is “little effect”.

`CN(C)CCNC(=O)c1ccc(-c2ccccc2)cc1` [Compound 68]: the “effect on ERK-mediated Rsk-1 phosphorylation (in words)” value in assay [1] is reported as “appeared to enhance; also recorded: enhanced”. For the same compound, the “effect on colony formation / cell proliferation (in words)” value in assay [3] is reported as “little effect”.

`O=C(CCN1CCN(C/C=C/c2ccccc2)CC1)Nc1ccc(Cl)cc1` [Compound 81]: in [4], the “inhibition of cell proliferation in HT1080 (in words)” value was “inhibition of cell proliferation”. In assay [5], the “inhibition of cell proliferation in SUM-159 (in words)” value is given as “inhibition of cell proliferation”. Besides, the “ERK2 fluorescence quenching / binding (in words)” value on ERK2 is “quenching only occurs to a small extent at the higher concentrations”. Further, the “effect on colony formation / cell proliferation (in words)” value in assay [3] is given as “completely inhibited”. Moreover, the IC50 (as a rule, the midpoint of a concentration-inhibition curve) in assay [6] is approximately 15 µM.

In the assay on HeLa cells, `C#CCOC(=O)CCCC(=O)Nc1ccc([N+](=O)[O-])cc1Cl` [Compound 87] registered an IC50 of more than 100 µM.

Consider `CCOC(=O)c1ccc(C=NO)[n+]([O-])c1` [Compound 88], for which, in the assay with HeLa cells, the IC50 was more than 100 µM.

For the compound `NC(=N[N+](=O)[O-])N/N=C/c1ccc(-c2cccc([N+](=O)[O-])c2)o1` [Compound 89], in assay [1], the “effect on ERK-mediated Rsk-1 phosphorylation (in words)” value is “most effective”. Also, in [7], the “effect on ERK-mediated Elk-1 phosphorylation (in words)” value is recorded as “most effective”.

As for `CCOC(=O)c1ccc(NC(=S)NCCN2CCOCC2)cc1` [Compound 90], in the assay on HeLa cells, the half-maximal inhibitory concentration (IC50) is more than 100 µM.

`CC(Oc1ccc(C=C2NC(=S)NC2=O)cc1)C(=O)O` (stereo not drawn) [Compound 91] had a half-inhibitory concentration (IC50) in the assay on HeLa cells of more than 100 µM. Besides, in assay [1], the “effect on ERK-mediated Rsk-1 phosphorylation (in words)” value is “most effective”.

For the compound `Cc1ccc(-c2nc(-c3cccc([N+](=O)[O-])c3)no2)c(Cl)c1` [Compound 93], the half-inhibitory concentration (IC50) in the assay on HeLa cells was 5 to 10 µM. Also, the “inhibition of colony formation / cancer cell proliferation (in words)” value in the assay with HeLa cells (compounds 86-98, colony formation assay (FIG. 7E)) was “most effective inhibitors”. Moreover, the “effect on ERK-mediated Elk-1 phosphorylation (in words)” value in [7] is on record as “most effective”. Besides, the “ERK2 fluorescence quenching / binding (in words)” value on ERK2 was “some quenching”.

Compound `COc1cc(C=C2NC(=O)NC2=O)ccc1OCc1ccc(Br)cc1` [Compound 95] displayed an IC50 in the assay with HeLa cells of 10 to 25 µM. Moreover, the “effect on ERK-mediated Rsk-1 phosphorylation (in words)” value in assay [1] was “most effective”. The “effect on ERK-mediated Elk-1 phosphorylation (in words)” value in [7] was “most effective”.

Regarding `COc1ccc(C(=O)Nc2ccc(OCC(=O)O)cc2)cc1` [Compound 96], the IC50 with HeLa cells was more than 100 µM.

In the case of `O=C(CN1CCSCC1)NN=Cc1ccc(Br)s1` [Compound 97], the 50% inhibitory concentration (IC50) in the assay on HeLa cells is more than 100 µM.

In the assay with HeLa cells, `NC(=O)COc1ccc(C=C2C(=O)NC(=S)NC2=O)cc1` [Compound 98] showed an IC50 of more than 100 µM.
